Consider 22 molecules from patent publication US11718614B2, “Compounds and methods for treatment of hedgehog pathway associated conditions” (Suzhou Mednes Pharma Tech Co., Ltd., priority 2018, dated 2023).

By IC50 is commonly meant the concentration that gives 50% inhibition. A lower IC50 goes with higher potency.

Some results are limits rather than exact numbers.

For the assay, the system named is tumor cells from medulloblastoma developed from mice with deficiency in Patched1 gene. In words: MB assay: survival of medulloblastoma tumor cells by MTT after 48 hours. Format: cell-based. The settings on record: Mus musculus, tumor cells treated 48 hours, cell survival by MTT. On the procedure: To test the effect of the novel compounds on the proliferation of tumor cell, we isolated tumor cells from medulloblastoma developed from mice with deficiency in Patched1 gene. Tumor cells were plated in vitro as previously described, and treated with various concentration of compounds for 48 hours. Tumor cells cultured were then harvested to measure cell survival based on MTT assay. The IC50 value for each compound was calculated using Prism the statistical software.
Table 1 below summarizes the IC50 data obtained using MB assay for exemplary compounds of the invention. IC50 values are shown as A, B, C, or D. A represents IC50 value between 1.0 μM and 5.0 μM; B is between 5.0 μM and 10 μM; C is between 10 μM to 20 μM; and D indicates greater than 20 μM.
`COc1ccc2c(c1)c(SC(C)(C)C)c(CC(C)(C)c1nnn(C)n1)n2Cc1ccc(Cl)cc1` [Compound 36, 3-(tert-butylthio)-1-(4-chlorobenzyl)-5-methoxy-2-(2-methyl-2-(2-methyl-2H-tetrazol-5-yl)propyl)-1H-indole] came in with an IC50 of 5 to 10 µM. Molecule `Cn1nnnc1C(C)(C)Cc1c(SC(C)(C)C)c2cc(O)ccc2n1Cc1ccc(Cl)cc1` [Compound 37, 3-(tert-butylthio)-1-(4-chlorobenzyl)-2-(2-methyl-2-(1-methyl-1H-tetrazol-5-yl)propyl)-1H-indol-5-ol] returned an IC50 of 10 to 20 µM.

As for `COc1ccc2c(c1)nc(C(C)c1ccc(Br)cc1)n2Cc1ccccc1Cl` (stereo not shown) [Compound 39], the IC50 is 5 to 10 µM.

The molecule `COc1ccc2c(c1)nc(C(C)c1ccc(C#N)cc1)n2Cc1ccccc1Cl` (stereo not shown) [Compound 40] had an IC50 above 20 µM. With `COc1ccc2c(c1)nc(C(C)c1ccc(C(=O)O)cc1)n2Cc1ccccc1Cl` (stereo not shown) [Compound 41], the half-maximal inhibitory concentration (IC50) was above 20 µM.

The molecule `COC(=O)c1ccc(C(C)c2nc3cc(OC)ccc3n2Cc2ccccc2Cl)cc1` (stereo not shown) [Compound 42] displayed a half-inhibitory concentration (IC50) above 20 µM. In turn, `COc1ccc2c(c1)nc(C(C)c1ccc(CO)cc1)n2Cc1ccccc1Cl` (stereo not shown) [Compound 43] had an IC50 above 20 µM. The molecule `COc1ccc2c(c1)nc(C(C)c1ccc(CC#N)cc1)n2Cc1ccccc1Cl` (stereo not shown) [Compound 44] gave an IC50 above 20 µM.

As to `COc1ccc2c(c1)nc(C(C)c1ccc(CC(=O)O)cc1)n2Cc1ccccc1Cl` (stereo not shown) [Compound 45], the IC50 is above 20 µM. `COC(=O)Cc1ccc(C(C)c2nc3cc(OC)ccc3n2Cc2ccccc2Cl)cc1` (stereo not shown) [Compound 46] had an IC50 of 10 to 20 µM. Then `COc1ccc2c(c1)nc(C(C)c1ccc(CCO)cc1)n2Cc1ccccc1Cl` (stereo not shown) [Compound 47], with above 20 µM. `COc1ccc2c(c1)cc(C(C)c1ccc(CC(C)C)cc1)n2Cc1cccc(Cl)c1` (stereo not shown) [Compound 48] showed an IC50 above 20 µM. For `CC(C)Cc1ccc(C(C)c2cc3cc(O)ccc3n2Cc2cccc(Cl)c2)cc1` (stereo not shown) [Compound 49], the IC50 lay in the range of 1 to 5 µM.

Regarding `COc1ccc2c(c1)nc(-c1ccc(CC(C)C)cc1)n2Cc1ccccc1Cl` [Compound 50], the concentration for half-maximal inhibition (IC50) is 10 to 20 µM. Take `CC(C)Cc1ccc(-c2nc3cc(O)ccc3n2Cc2ccccc2Cl)cc1` [Compound 51]: the IC50 fell in the range of 5 to 10 µM. Then `CC(C)Cc1ccc(C(C)c2nc3cc(Br)ccc3n2Cc2ccccc2Cl)cc1` (stereo not shown) [Compound 52], with above 20 µM; and `CC(C)Cc1ccc(C(C)c2nc3cc(C(=O)O)ccc3n2Cc2ccccc2Cl)cc1` (stereo not shown) [Compound 53], with 10 to 20 µM. Molecule `COc1ccc2c(c1)c(-c1ccc(CC(C)C)cc1)c(C)n2Cc1ccccc1Cl` [Compound 54] had an IC50 above 20 µM. `Cc1c(-c2ccc(CC(C)C)cc2)c2cc(O)ccc2n1Cc1ccccc1Cl` [Compound 55] showed an IC50 of 1 to 5 µM.

As for `COc1ccc2c(c1)c(-c1ccc(CC(C)C)cc1)cn2Cc1ccccc1Cl` [Compound 56, 1-(2-chlorobenzyl)-3-(4-isobutylphenyl)-5-methoxy-1H-indole], the IC50 was above 20 µM. Then `COc1ccc2c(c1)nc(CC(C)(C)C(=O)O)n2Cc1ccccc1Cl` [Compound 57], with above 20 µM; and `COC(=O)C(C)(C)Cc1nc2cc(OC)ccc2n1Cc1ccccc1Cl` [Compound 58], with above 20 µM.
